Where two headings read alike, the source gives them in different places.
Key:
C57BL/6J ob/ob mice = assay: Glucose lowering of (±) and (−) halofenate analogs in ob/ob mice (Example 12); format: in vivo
CYP1A2 = target: T1, CYP1A2 (Homo sapiens, UniProt P05177); conditions: both, 30 min
T1 sequence (P05177 1-516): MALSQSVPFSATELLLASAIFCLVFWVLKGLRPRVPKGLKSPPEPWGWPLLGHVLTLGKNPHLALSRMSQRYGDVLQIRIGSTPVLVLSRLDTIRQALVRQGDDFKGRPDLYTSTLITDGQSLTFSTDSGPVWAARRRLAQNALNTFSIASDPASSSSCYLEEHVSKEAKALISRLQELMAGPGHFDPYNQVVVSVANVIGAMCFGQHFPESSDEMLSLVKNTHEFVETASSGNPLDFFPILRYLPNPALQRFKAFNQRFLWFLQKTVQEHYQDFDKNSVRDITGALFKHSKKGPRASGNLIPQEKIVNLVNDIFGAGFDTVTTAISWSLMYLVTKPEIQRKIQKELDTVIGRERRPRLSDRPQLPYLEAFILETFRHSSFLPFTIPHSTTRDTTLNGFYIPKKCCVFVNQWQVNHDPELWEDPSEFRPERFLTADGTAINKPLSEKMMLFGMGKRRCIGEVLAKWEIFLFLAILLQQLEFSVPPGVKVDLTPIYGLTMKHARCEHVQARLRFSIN

CYP2A6 [1] = target: T2, CYP2A6 (Homo sapiens, UniProt P11509); conditions: for 7-HC Production: both, human, 20 min
T2 sequence (P11509 1-494): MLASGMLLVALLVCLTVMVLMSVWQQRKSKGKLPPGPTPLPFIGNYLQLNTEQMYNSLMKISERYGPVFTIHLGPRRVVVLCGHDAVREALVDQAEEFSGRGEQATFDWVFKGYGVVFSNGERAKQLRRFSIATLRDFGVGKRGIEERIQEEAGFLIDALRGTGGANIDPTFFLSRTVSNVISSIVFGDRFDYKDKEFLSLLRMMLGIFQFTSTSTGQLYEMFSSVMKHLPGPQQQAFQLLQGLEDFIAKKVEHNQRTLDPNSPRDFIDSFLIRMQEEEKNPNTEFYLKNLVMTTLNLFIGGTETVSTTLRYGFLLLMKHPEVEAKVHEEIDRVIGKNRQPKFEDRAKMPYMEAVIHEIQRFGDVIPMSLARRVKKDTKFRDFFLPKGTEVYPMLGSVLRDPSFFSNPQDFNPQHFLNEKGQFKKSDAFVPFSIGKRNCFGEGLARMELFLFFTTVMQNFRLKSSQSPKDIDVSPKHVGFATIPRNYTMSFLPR

CYP2C9 = CYP2C9 (Homo sapiens, UniProt P11712); conditions: both, human, 40 min
CYP2D6 = CYP2D6 (Homo sapiens, UniProt P10635); conditions: both, 15 min
CYP3A4 = CYP3A4 (Homo sapiens, UniProt P08684); conditions: both, 10 min
[2] = target: cytochrome P450 2C9 (CYP2C9) (Homo sapiens, UniProt P11712); assay: Inhibition of CYP2C9 tolbutamide hydroxylation in pooled human liver microsomes (Example 7); conditions: ratio of apparent IC50
Description: Tolbutamide hydroxylation activity (100 μM ^14C-tolbutamide; 1 mM NADPH) was assayed in pooled human liver microsomes (0.6 mg protein/ml)) for 60 minutes at 37° C. both with and without test compounds.

CYP2A6 [3] = target: T2, CYP2A6; assay: Cytochrome P450 isoform inhibition, coumarin, human hepatic microsomes (Example 18); conditions: TRAN 250 μM; 1 μM coumarin; VC 32.0 ± 1.4

CYP2C9, sequence (P11712 whole entry): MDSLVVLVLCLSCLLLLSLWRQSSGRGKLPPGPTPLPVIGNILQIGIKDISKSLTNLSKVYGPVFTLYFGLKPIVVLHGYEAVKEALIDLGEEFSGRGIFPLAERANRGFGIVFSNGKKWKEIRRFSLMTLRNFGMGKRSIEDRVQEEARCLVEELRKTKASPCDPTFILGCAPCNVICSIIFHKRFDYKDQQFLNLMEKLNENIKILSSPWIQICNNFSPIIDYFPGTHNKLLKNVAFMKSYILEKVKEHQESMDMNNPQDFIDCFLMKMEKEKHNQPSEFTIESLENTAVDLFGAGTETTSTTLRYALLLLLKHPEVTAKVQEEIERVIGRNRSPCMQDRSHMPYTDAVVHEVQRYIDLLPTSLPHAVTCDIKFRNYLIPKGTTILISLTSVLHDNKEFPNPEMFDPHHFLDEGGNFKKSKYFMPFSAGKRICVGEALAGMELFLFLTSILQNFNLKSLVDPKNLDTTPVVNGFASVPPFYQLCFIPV
CYP3A4, sequence (P08684 whole entry): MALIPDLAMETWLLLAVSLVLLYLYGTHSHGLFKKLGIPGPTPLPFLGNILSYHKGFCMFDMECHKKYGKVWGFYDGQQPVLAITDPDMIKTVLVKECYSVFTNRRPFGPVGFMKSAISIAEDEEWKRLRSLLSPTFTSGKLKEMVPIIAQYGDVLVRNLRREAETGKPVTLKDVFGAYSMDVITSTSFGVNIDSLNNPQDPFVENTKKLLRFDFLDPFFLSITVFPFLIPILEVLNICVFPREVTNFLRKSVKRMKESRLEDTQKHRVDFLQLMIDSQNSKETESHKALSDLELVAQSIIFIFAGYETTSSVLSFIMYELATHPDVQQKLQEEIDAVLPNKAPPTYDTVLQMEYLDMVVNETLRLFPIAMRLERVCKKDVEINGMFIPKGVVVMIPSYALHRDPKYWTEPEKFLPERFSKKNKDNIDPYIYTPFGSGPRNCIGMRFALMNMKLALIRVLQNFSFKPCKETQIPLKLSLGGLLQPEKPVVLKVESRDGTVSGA
CYP2D6, sequence (P10635 whole entry): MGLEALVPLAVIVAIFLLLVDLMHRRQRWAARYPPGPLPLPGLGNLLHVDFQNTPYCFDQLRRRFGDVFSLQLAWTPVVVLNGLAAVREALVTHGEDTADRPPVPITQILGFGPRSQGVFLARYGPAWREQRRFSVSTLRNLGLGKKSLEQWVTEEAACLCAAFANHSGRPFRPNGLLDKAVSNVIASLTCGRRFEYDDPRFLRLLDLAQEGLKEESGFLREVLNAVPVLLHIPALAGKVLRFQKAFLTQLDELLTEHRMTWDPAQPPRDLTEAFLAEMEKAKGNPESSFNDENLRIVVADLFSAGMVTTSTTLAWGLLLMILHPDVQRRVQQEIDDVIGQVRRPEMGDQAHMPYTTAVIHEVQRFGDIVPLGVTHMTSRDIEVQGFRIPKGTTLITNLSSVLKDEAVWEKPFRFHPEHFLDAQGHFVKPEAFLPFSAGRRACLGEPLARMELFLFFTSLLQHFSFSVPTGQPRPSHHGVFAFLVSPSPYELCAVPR
cytochrome P450 2C9 (CYP2C9), sequence (P11712 whole entry, canonical isoform): as the sequence (P11712 whole entry) above

`O=C(O)C(Oc1cccc(C(F)(F)F)c1)c1ccc(Cl)cc1` (single isomer, unassigned; (-)) [(−) halofenic acid, (−) 4-chlorophenyl-(3-trifluoromethylphenoxy)-acetic acid] was tested, and the “time points with significantly lowered plasma glucose concentrations” value (C57BL/6J ob/ob mice; 125 mg/kg oral once a day) was 6 h, the “6 hours Glucose” value (C57BL/6J ob/ob mice; 125 mg/kg oral once a day, 6 hours after first dose) was 163.8 ± 11.8 mg/dL and the “Predose Glucose” value (C57BL/6J ob/ob mice; baseline before dosing, group later given 125 mg/kg oral once a day) was 312.9 ± 17.7 mg/dL. For the same compound, the “AC Production” value (CYP1A2; 0.33 μM) was 116 ± 2 pmol/mg protein/min, the “AC Production” value (CYP1A2; 1 μM) was 118 ± 2 pmol/mg protein/min and the “AC Production” value (CYP1A2; 3.3 μM) was 119 ± 2 pmol/mg protein/min. For the same compound, the “AC Production” value (CYP1A2; 10 μM) was 119 ± 2 pmol/mg protein/min, the “AC Production” value (CYP1A2; 33.3 μM) was 119 ± 2 pmol/mg protein/min and the “7-HC Production” value (CYP2A6 [1]; 0.33 μM) was 33.3 ± 0.7 pmol/mg protein/min. The “7-HC Production” value (CYP2A6 [1]; 1 μM) was 32.6 ± 0.7 pmol/mg protein/min, the “7-HC Production” value (CYP2A6 [1]; 3.3 μM) was 32.1 ± 0.7 pmol/mg protein/min and the “7-HC Production” value (CYP2A6 [1]; 10 μM) was 33.1 ± 0.7 pmol/mg protein/min. For the same compound, the “7-HC Production” value (CYP2A6 [1]; 33.3 μM) was 32.3 ± 0.7 pmol/mg protein/min, the “4-OH TB Production” value (CYP2C9; 0.33 μM) was 41.0 ± 0.9 pmol/mg protein/min and the “4-OH TB Production” value (CYP2C9; 1 μM) was 38.6 ± 0.5 pmol/mg protein/min. The “4-OH TB Production” value (CYP2C9; 3.3 μM) was 34.2 ± 0.2 pmol/mg protein/min, the “4-OH TB Production” value (CYP2C9; 10 μM) was 22.7 ± 0.6 pmol/mg protein/min and the “4-OH TB Production” value (CYP2C9; 33.3 μM) was 12.7 ± 0.2 pmol/mg protein/min. For the same compound, the IC50 (CYP2C9; microsomes) was about 11.3 µM, the “DEX Production” value (CYP2D6; 0.33 μM) was 107 ± 4 pmol/mg protein/min and the “DEX Production” value (CYP2D6; 1 μM) was 110 ± 2 pmol/mg protein/min. The “DEX Production” value (CYP2D6; 3.3 μM) was 104 ± 3 pmol/mg protein/min, the “DEX Production” value (CYP2D6; 10 μM) was 107 ± 1 pmol/mg protein/min and the “DEX Production” value (CYP2D6; 33.3 μM) was 106 ± 4 pmol/mg protein/min. For the same compound, the “6β-OHT Production” value (CYP3A4; 0.33 μM) was 1816 ± 12 pmol/mg protein/min, the “6β-OHT Production” value (CYP3A4; 1 μM) was 1851 ± 14 pmol/mg protein/min and the “6β-OHT Production” value (CYP3A4; 3.3 μM) was 1810 ± 3 pmol/mg protein/min. The “6β-OHT Production” value (CYP3A4; 10 μM) was 1819 ± 4 pmol/mg protein/min, the “6β-OHT Production” value (CYP3A4; 33.3 μM) was 1816 ± 6 pmol/mg protein/min and the “fold less potent than (+) halofenic acid in inhibiting CYP2C9” value [2] was about 20 fold.

In the case of `N[C@@H]1C[C@H]1c1ccccc1` (racemic) [TRAN, tranylcypromine, reference compound], the “% Inhibition (Coumarin, CYP2A6)” value (CYP2A6 [1]; microsomes) is reported as 100% and the “7-HC Production” value (CYP2A6 [3]) is reported as 0.00 ± 0.00 pmol/mg protein/min.
